Laboratory results reported in ChEMBL document CHEMBL4229455, “Synthesis and anticancer activity of novel bisindolylhydroxymaleimide derivatives with potent GSK-3 kinase inhibition” (Bioorg Med Chem, 2018).

Assays:
Assay type in all cases: functional
HL-60(TB) = assay: Cytotoxicity against human HL-60(TB) cells assessed as cell growth at 100 uM after 48 hrs by SRB assay relative to control; details: HL-60, 48 h, read-out: Activity
NCI/ADR-RES = assay: Cytotoxicity against human NCI-ADR-RES cells after 48 hrs by SRB assay; details: for CC50: read-out: LC50 (the source's name)
M14 [1] = assay: Cytotoxicity against human M14 cells assessed as cell growth at 0.1 uM after 48 hrs by SRB assay relative to control; details: M14, 48 h, read-out: Activity
MDA-MB-468 = assay: Cytotoxicity against human MDA-MB-468 cells assessed as cell growth at 1 uM after 48 hrs by SRB assay relative to control; details: MDA-MB-468, 48 h, read-out: Activity
SR = assay: Cytotoxicity against human SR cells assessed as cell growth at 0.1 uM after 48 hrs by SRB assay relative to control; details: read-out: Activity
HT-29 = assay: Cytotoxicity against human HT-29 cells assessed as cell growth at 0.1 uM after 48 hrs by SRB assay relative to control; details: HT-29, 48 h, read-out: Activity
OVCAR-5 = assay: Cytotoxicity against human OVCAR5 cells assessed as cell growth at 1 uM after 48 hrs by SRB assay relative to control; details: OVCAR-5, 48 h, read-out: Activity
SF-295 [2] = assay: Cytotoxicity against human SF295 cells assessed as cell growth at 0.01 uM after 48 hrs by SRB assay relative to control; details: SF-295, 48 h, read-out: Activity
TK-10 = assay: Cytotoxicity against human TK10 cells assessed as cell growth at 0.01 uM after 48 hrs by SRB assay relative to control; details: TK-10, 48 h, read-out: Activity
BT-549 [3] = assay: Cytotoxicity against human BT549 cells assessed as cell growth at 1 uM after 48 hrs by SRB assay relative to control; details: BT-549, 48 h, read-out: Activity
NCI-H522 = assay: Cytotoxicity against human NCI-H522 cells assessed as cell growth at 100 uM after 48 hrs by SRB assay relative to control; details: NCI-H522, 48 h, read-out: Activity
MDA-MB-435 = assay: Cytotoxicity against human MDA-MB-435 cells assessed as cell growth at 0.01 uM after 48 hrs by SRB assay relative to control; details: MDA-MB-435, 48 h, read-out: Activity
A498 [4] = assay: Cytotoxicity against human A498 cells after 48 hrs by SRB assay; details: A498, 48 h
HCT-116 [5] = assay: Cytotoxicity against human HCT116 cells after 48 hrs by SRB assay; details: HCT-116, 48 h
SK-MEL-5 = assay: Cytotoxicity against human SK-MEL-5 cells assessed as cell growth at 0.1 uM after 48 hrs by SRB assay relative to control; details: SK-MEL-5, 48 h, read-out: Activity
HCT-15 [6] = assay: Cytotoxicity against human HCT15 cells assessed as cell growth at 100 uM after 48 hrs by SRB assay relative to control; details: HCT-15, 48 h, read-out: Activity
A498 [7] = assay: Cytotoxicity against human A498 cells assessed as cell growth at 0.01 uM after 48 hrs by SRB assay relative to control; details: A498, 48 h, read-out: Activity
A549 [8] = assay: Cytotoxicity against human A549 cells assessed as cell growth at 100 uM after 48 hrs by SRB assay relative to control; details: A549, 48 h, read-out: Activity
BT-549 [9] = assay: Cytotoxicity against human BT549 cells assessed as cell growth at 0.1 uM after 48 hrs by SRB assay relative to control; details: BT-549, 48 h, read-out: Activity
SNB-19 = assay: Cytotoxicity against human SNB19 cells assessed as cell growth at 1 uM after 48 hrs by SRB assay relative to control; details: SNB-19, 48 h, read-out: Activity
SN12C = assay: Cytotoxicity against human SN12C cells after 48 hrs by SRB assay; details: for CC50: read-out: LC50 (the source's name)
SF-295 [10] = assay: Cytotoxicity against human SF295 cells assessed as cell growth at 1 uM after 48 hrs by SRB assay relative to control; details: SF-295, 48 h, read-out: Activity
SF-539 = assay: Cytotoxicity against human SF539 cells after 48 hrs by SRB assay; details: SF-539, 48 h
HOP-62 = assay: Cytotoxicity against human HOP62 cells assessed as cell growth at 0.01 uM after 48 hrs by SRB assay relative to control; details: HOP-62, 48 h, read-out: Activity
A498 [11] = assay: Cytotoxicity against human A498 cells assessed as cell growth at 100 uM after 48 hrs by SRB assay relative to control; details: A498, 48 h, read-out: Activity
M14 [12] = assay: Cytotoxicity against human M14 cells assessed as cell growth at 100 uM after 48 hrs by SRB assay relative to control; details: M14, 48 h, read-out: Activity
HCT-15 [13] = assay: Cytotoxicity against human HCT15 cells assessed as cell growth at 0.01 uM after 48 hrs by SRB assay relative to control; details: HCT-15, 48 h, read-out: Activity
Malme-3M = assay: Cytotoxicity against human MALME-3M cells assessed as cell growth at 0.1 uM after 48 hrs by SRB assay relative to control; details: read-out: Activity
UO-31 = assay: Cytotoxicity against human UO31 cells assessed as cell growth at 0.1 uM after 48 hrs by SRB assay relative to control; details: UO-31, 48 h, read-out: Activity
HCC 2998 = assay: Cytotoxicity against human HCC2998 cells assessed as cell growth at 0.01 uM after 48 hrs by SRB assay relative to control; details: HCC 2998, 48 h, read-out: Activity
HCT-116 [14] = assay: Cytotoxicity against human HCT116 cells assessed as cell growth at 1 uM after 48 hrs by SRB assay relative to control; details: HCT-116, 48 h, read-out: Activity
NCI-H226 = assay: Cytotoxicity against human NCI-H226 cells assessed as cell growth at 1 uM after 48 hrs by SRB assay relative to control; details: NCI-H226, 48 h, read-out: Activity
BT-549 [15] = assay: Cytotoxicity against human BT549 cells assessed as cell growth at 0.01 uM after 48 hrs by SRB assay relative to control; details: BT-549, 48 h, read-out: Activity
MCF7 = assay: Cytotoxicity against human MCF7 cells after 48 hrs by SRB assay; details: MCF7, 48 h
DU-145 = assay: Cytotoxicity against human DU145 cells assessed as cell growth at 1 uM after 48 hrs by SRB assay relative to control; details: DU-145, 48 h, read-out: Activity
A498 [16] = assay: Cytotoxicity against human A498 cells assessed as cell growth at 1 uM after 48 hrs by SRB assay relative to control; details: A498, 48 h, read-out: Activity
A549 [17] = assay: Cytotoxicity against human A549 cells assessed as cell growth at 0.01 uM after 48 hrs by SRB assay relative to control; details: A549, 48 h, read-out: Activity

**Q.** Which results are given for `N#CCCCCCn1cc(C2=C(c3cn(CCCCCC#N)c4ccccc34)C(=O)N(O)C2=O)c2ccccc21`?
**A.** growth at 100 µM (HL-60(TB)): -27%; GI50 (NCI/ADR-RES): 20.4 µM; TGI (NCI/ADR-RES): > 100 µM; CC50 (NCI/ADR-RES): > 100 µM; growth at 0.1 µM (M14 [1]): 85%; growth at 1 µM (MDA-MB-468): 106%; growth at 0.1 µM (SR): 100%; growth at 0.1 µM (HT-29): 103%; growth at 1 µM (OVCAR-5): 91%; growth at 0.01 µM (SF-295 [2]): 98%; growth at 0.01 µM (TK-10): 93%; growth at 1 µM (BT-549 [3]): 89%; growth at 100 µM (NCI-H522): -30%; growth at 0.01 µM (MDA-MB-435): 95%; GI50 (A498 [4]): 2.36 µM; LC50 (A498 [4]): > 100 µM; TGI (A498 [4]): 86 µM; GI50 (HCT-116 [5]): 4.17 µM; LC50 (HCT-116 [5]): > 100 µM; TGI (HCT-116 [5]): 37.8 µM; growth at 0.1 µM (SK-MEL-5): 99%; growth at 100 µM (HCT-15 [6]): 1%; growth at 0.01 µM (A498 [7]): 84%; growth at 100 µM (A549 [8]): 5%; growth at 0.1 µM (BT-549 [9]): 92%; growth at 1 µM (SNB-19): 91%; GI50 (SN12C): 8.47 µM; TGI (SN12C): > 100 µM; CC50 (SN12C): > 100 µM; growth at 1 µM (SF-295 [10]): 96%; GI50 (SF-539): 2.82 µM; LC50 (SF-539): > 100 µM; TGI (SF-539): 9.42 µM; growth at 0.01 µM (HOP-62): 94%; growth at 100 µM (A498 [11]): -1%; growth at 100 µM (M14 [12]): -25%; growth at 0.01 µM (HCT-15 [13]): 93%; growth at 0.1 µM (Malme-3M): 94%; growth at 0.1 µM (UO-31): 66%; growth at 0.01 µM (HCC 2998): 98%; growth at 1 µM (HCT-116 [14]): 98%; growth at 1 µM (NCI-H226): 89%; growth at 0.01 µM (BT-549 [15]): 101%; GI50 (MCF7): 3.57 µM; LC50 (concentration killing 50% of cells) (MCF7): > 100 µM; TGI (MCF7): 30.7 µM; growth at 1 µM (DU-145): 107%; growth at 1 µM (A498 [16]): 70%; growth at 0.01 µM (A549 [17]): 100%

**Q.** `Cn1cc(C2=C(c3cn(C)c4ncccc34)C(=O)NC2=O)c2ccccc21` was tested. Which growth at 100 µM (HL-60(TB)) did it give?
**A.** -28%

**Q.** What about the GI50 (NCI/ADR-RES) of the same molecule?
**A.** 5.19 µM

**Q.** What about the TGI (NCI/ADR-RES) of the same molecule?
**A.** 44 µM

**Q.** And the CC50 (NCI/ADR-RES)?
**A.** > 100 µM

**Q.** What about the growth at 0.1 µM (M14 [1]) of the same molecule?
**A.** 108%

**Q.** What about the growth at 1 µM (MDA-MB-468) of the same molecule?
**A.** 78%

**Q.** What about the growth at 0.1 µM (SR) of the same molecule?
**A.** 88%

**Q.** What about the growth at 0.1 µM (HT-29) of the same molecule?
**A.** 107%

**Q.** What about the growth at 1 µM (OVCAR-5) of the same molecule?
**A.** 103%

**Q.** And the growth at 0.01 µM (SF-295 [2])?
**A.** 98%

**Q.** And the growth at 0.01 µM (TK-10)?
**A.** 100%

**Q.** And the growth at 1 µM (BT-549 [3])?
**A.** 85%

**Q.** And the growth at 100 µM (NCI-H522)?
**A.** -30%

**Q.** What about the growth at 0.01 µM (MDA-MB-435) of the same molecule?
**A.** 98%

**Q.** What about the GI50 (A498 [4]) of the same molecule?
**A.** 0.32 µM

**Q.** And the TGI (A498 [4])?
**A.** 2.34 µM

**Q.** And the GI50 (HCT-116 [5])?
**A.** 3.24 µM

**Q.** What about the TGI (HCT-116 [5]) of the same molecule?
**A.** 30.2 µM

**Q.** What about the growth at 0.1 µM (SK-MEL-5) of the same molecule?
**A.** 101%

**Q.** What about the growth at 100 µM (HCT-15 [6]) of the same molecule?
**A.** -6%

**Q.** What about the growth at 0.01 µM (A498 [7]) of the same molecule?
**A.** 76%

**Q.** What about the growth at 100 µM (A549 [8]) of the same molecule?
**A.** -19%

**Q.** And the growth at 0.1 µM (BT-549 [9])?
**A.** 98%

**Q.** What about the growth at 1 µM (SNB-19) of the same molecule?
**A.** 91%

**Q.** And the GI50 (SN12C)?
**A.** 2.31 µM

**Q.** And the TGI (SN12C)?
**A.** 16.2 µM

**Q.** And the CC50 (SN12C)?
**A.** > 100 µM

**Q.** What about the growth at 1 µM (SF-295 [10]) of the same molecule?
**A.** 85%

**Q.** And the GI50 (SF-539)?
**A.** 2.09 µM

**Q.** What about the TGI (SF-539) of the same molecule?
**A.** 5.85 µM

**Q.** And the growth at 0.01 µM (HOP-62)?
**A.** 110%

**Q.** And the growth at 100 µM (A498 [11])?
**A.** -49%

**Q.** And the growth at 100 µM (M14 [12])?
**A.** -67%

**Q.** And the growth at 0.01 µM (HCT-15 [13])?
**A.** 100%

**Q.** And the growth at 0.1 µM (Malme-3M)?
**A.** 112%

**Q.** What about the growth at 0.1 µM (UO-31) of the same molecule?
**A.** 89%

**Q.** What about the growth at 0.01 µM (HCC 2998) of the same molecule?
**A.** 103%

**Q.** What about the growth at 1 µM (HCT-116 [14]) of the same molecule?
**A.** 86%

**Q.** What about the growth at 1 µM (NCI-H226) of the same molecule?
**A.** 86%

**Q.** And the growth at 0.01 µM (BT-549 [15])?
**A.** 110%

**Q.** What about the GI50 (MCF7) of the same molecule?
**A.** 2.4 µM

**Q.** And the TGI (MCF7)?
**A.** 29.5 µM

**Q.** What about the growth at 1 µM (DU-145) of the same molecule?
**A.** 104%

**Q.** And the growth at 1 µM (A498 [16])?
**A.** 27%

**Q.** What about the growth at 0.01 µM (A549 [17]) of the same molecule?
**A.** 99%
